1 substance from patent US8022051B2, “Composition for protection and improvement of skin, or reinforcing skin barrier function comprising phosphatidylserine” (Doosan Corporation, priority 2004, dated 2011) can be followed below.

The target in this assay is T1, PPAR-a (Homo sapiens, UniProt Q07869).
T1 construct: expressed in transfected cells; host or cells: HeLa (KCLB No. 10002)
T1 sequence (Q07869 1-468): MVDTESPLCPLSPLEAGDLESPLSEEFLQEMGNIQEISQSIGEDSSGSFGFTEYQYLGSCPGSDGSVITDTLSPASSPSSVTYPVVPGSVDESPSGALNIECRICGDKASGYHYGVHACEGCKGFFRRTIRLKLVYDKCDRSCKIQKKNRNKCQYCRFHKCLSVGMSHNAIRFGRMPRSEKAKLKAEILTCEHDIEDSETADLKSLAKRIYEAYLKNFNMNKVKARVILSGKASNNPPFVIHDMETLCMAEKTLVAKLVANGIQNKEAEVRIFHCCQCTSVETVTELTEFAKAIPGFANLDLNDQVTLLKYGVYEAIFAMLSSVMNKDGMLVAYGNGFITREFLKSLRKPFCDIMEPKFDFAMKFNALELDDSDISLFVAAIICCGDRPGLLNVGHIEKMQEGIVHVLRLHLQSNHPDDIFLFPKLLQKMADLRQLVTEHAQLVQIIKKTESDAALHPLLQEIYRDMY
The experiment in a line: PPAR-a activation in HeLa cell line (PPRE-luciferase reporter). To be noted: 20 and 40 μM, eight hours; FIG. 7. The assay is classed as cell-based. The protocol:
In order to examine a PPAR-a activating effect of the phosphatidylserine of the invention, a following experiment was performed. At this time, it was examined activities for the PPAR-a and PPAR-γ retained.
First, a HeLa (Human epithelial carcinoma) (KCLB [Korean Cell Line Bank] No. 10002, Korea) was seeded to a 24-well plate in an amount of 2×10^4 cells/well and then cultured for a day. Next day, in order to perform a cell transfection, 200 ng of PPAR-a over-expression vector, 200 ng of PPRE (peculiar to PPAR-a)-luciferase reporter vector (Promega, USA), and 40 ng of renilla luciferase vector used as the control group in the cell (internal control, i.e., used to examine an transfection efficiency) were mixed in the OMEM (Gibco, USA) culture medium and subject to the transfection to the cell using the lipofectamin (Invitrogen, USA). After four hours, the culture medium was added to be 10% FBS and then cultured for one night. Next day, in order to measure an activity of PPAR-a, it was treated with 20 and 40 μM of phosphatidylserine and 400 μM of the clofibrate as the positive control group and then cultured for eight hours. An activity of the luciferase was measured with a luminometer using a dual luciferase assay system (Promega, USA). Also in case of PPAR-γ, the same process was performed to measure the activity. […]
(In general: Reporter assays use an easily measured gene product as a stand-in for the process of interest.)

As to phosphatidylserine, the “activity of PPAR-a (luciferase)” value was “activated”.
